Legend:
[1] = target: BSA (bovine albumin serum) (Bos taurus, UniProt P02769); assay: Protein (albumin) denaturation assay; settings: maximum inhibition; compounds tested at 50-200 µg/mL, diclofenac 100 µg/mL
Procedure: Mizushima and Kobayashi’s technique was employed for the determination of in vitro anti-inflammatory activity by the protein denaturation method for the synthesized compounds. […] Then, a mixture of 500µL of 1% aqueous solution of BSA (bovine albumin serum) and 1.4 mL of phosphate buffer saline (PBS, pH 7.4) was added to 100 µL of varying concentrations of the synthesized compounds 50, 100, and 200 µg/mL. […] The mixtures are then incubated for 15 min at 37 °C and then heated for 10 min at 60 °C. The absorbance was measured at 660nm (SHIMADZU, UV-1800 Spectrophotometer) upon cooling. […] The entire experiment was done in triplicate, and the average was calculated. % inhibition of protein denaturation was calculated by: % inhibition=Absorbance of Control−Absorbance of Sample/Absorbance of Control×100
The anti-inflammatory capacity of the target compound was evaluated using the protein denaturation assay.

[2] = tested on: HEPG2 (human liver) cell line; assay: MTT anticancer assay, HepG2; format: cell-based; settings: for IC50 against HepG2: MTT
Procedure: (§1) The in vitro anticancer activity is determined by counting the viable cells that are stained with a vital dye. The MTT technique is an accurate measure of the activity of live cells using mitochondrial dehydrogenases. The target tumor cells A549 (human lung adenocarcinoma) and HEPG2 (human liver) cell lines are procured from the “National Centre for Cell Science” (NCCS, Pune). The sources of reagents like Trypsin, DMEM, Pen strip, and FBS are procured from Himedia. […] The culture medium was prepared, and the MTT assay was performed as per the general procedure described by Mosmann T. et al., [30] and the % viability of the cells was determined.
(§2) The target compounds tested for in vitro COX-2 were further checked for in vitro anti-cancer activity against A549 (lung cancer) and HepG2 (liver cancer) cell lines using MTT growth inhibition assay. The compounds were tested for cytotoxicity against both the cell lines at concentrations of 6.25, 12.5, 25, 50, and 100 µg/mL. […] Using the graph where % cell viability is plotted versus concentration, the IC50 values are determined with the help of the dose–response regression equation.

[3] = tested on: A549 (human lung adenocarcinoma) cell line; assay: MTT anticancer assay, A549; format: cell-based; settings: for IC50 against A549: MTT
Procedure: as §1, §2

human COX-1 = target: T1, human COX-1 (Homo sapiens, UniProt P23219); assay: In vitro COX-1 enzymatic assay (Cayman COX (human) Inhibitor Screening Assay Kit); format: biochemical; settings: for COX-1 IC50: human COX-1
T1 construct: purchased Cayman chemicals 701230
T1 sequence (P23219 24-599): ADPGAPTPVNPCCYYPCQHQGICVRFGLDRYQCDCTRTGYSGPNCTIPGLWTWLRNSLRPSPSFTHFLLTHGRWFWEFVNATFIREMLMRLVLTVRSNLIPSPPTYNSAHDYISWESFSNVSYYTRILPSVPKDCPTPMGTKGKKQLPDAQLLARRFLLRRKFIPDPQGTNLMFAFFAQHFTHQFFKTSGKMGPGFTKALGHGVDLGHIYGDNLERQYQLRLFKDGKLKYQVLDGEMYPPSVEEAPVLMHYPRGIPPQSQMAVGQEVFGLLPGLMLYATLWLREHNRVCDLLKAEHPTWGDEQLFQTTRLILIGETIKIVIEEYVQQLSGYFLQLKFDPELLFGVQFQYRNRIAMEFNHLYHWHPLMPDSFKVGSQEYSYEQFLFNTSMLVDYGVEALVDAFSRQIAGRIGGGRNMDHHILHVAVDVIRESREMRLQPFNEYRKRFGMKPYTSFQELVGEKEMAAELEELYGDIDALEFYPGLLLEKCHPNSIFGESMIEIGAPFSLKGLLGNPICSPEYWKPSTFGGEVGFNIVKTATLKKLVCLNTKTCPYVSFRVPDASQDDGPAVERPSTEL
Procedure: The ability of the compounds to inhibit COX -2 (IC50 values, µM) was determined by using a “COX (human) Inhibitor Screening Assay Kit” procured from Cayman Chemicals (catalog number 701230). With a slight modification in the method as defined in the reference, the COX-2 inhibition assay was performed. Using the percent conversion of arachidonic acid (AA) to PGH2, the enzyme activity was calculated. By enzyme immunoassay PGF2α, which is produced from PGH2 by reduction with stannous chloride, is calculated. The test compounds’ stock solutions are prepared by dissolving in a minimum amount of DMSO. Human COX-2 (10 µL) in the presence of 10 µL of heme was suspended in 0.1M Tris-HCl buffer (pH 8.0) which contains 2 mM phenol and 5 mM EDTA. This was added to various concentrations of test compounds and, on incubating the solutions at 37 °C for 5 min, 10 µL of AA solution were added. Later, the COX reaction was stopped by adding 1M HCl (50 µL) after 2 min. The intensity of the yellow color which is produced as the product of the enzymatic reaction is determined spectrophotometrically. The percent inhibition was calculated by comparing the compound treated to different control incubations. Celecoxib is utilized as the standard for the assay. The determinations are done in triplicate and the IC50 (µM) was determined using the concentration–inhibition response curve.
During the initiation of the inflammatory process, the COX enzyme plays a vital role in the progression of inflammatory response. The inflammatory mediators that arise due to the action of COX lead to the chemoattraction of neutrophils, macrophages, eosinophils, etc. Due to the involvement of COX in inflammatory diseases, inhibitors of this enzyme can help in designing effective therapeutic agents. […] This was carried out with the help of a COX (human) inhibitor screening assay kit (Item no. 701230) from Cayman chemicals. […] A test substance concentration was considered to be inhibitive when it inhibited human COX-1 or COX-2 by 50%. The compound’s selectivity was measured by its selectivity index values, derived as IC50 (COX-1)/IC50 (COX-2).

Chain of BSA (bovine albumin serum) (P02769 25-607): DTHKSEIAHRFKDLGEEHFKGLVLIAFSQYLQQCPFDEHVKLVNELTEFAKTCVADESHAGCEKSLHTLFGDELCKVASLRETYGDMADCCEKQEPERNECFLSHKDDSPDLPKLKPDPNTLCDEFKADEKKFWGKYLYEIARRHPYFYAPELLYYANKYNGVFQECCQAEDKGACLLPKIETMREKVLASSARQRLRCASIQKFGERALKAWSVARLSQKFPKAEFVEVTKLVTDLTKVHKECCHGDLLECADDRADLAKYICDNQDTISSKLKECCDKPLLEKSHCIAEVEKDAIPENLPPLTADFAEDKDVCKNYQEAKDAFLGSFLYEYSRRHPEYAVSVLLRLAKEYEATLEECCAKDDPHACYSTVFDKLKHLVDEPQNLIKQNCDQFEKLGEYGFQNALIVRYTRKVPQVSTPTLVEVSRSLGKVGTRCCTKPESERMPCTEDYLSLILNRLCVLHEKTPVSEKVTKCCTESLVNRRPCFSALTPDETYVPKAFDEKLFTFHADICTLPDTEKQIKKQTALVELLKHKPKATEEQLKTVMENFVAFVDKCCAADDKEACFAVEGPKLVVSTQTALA

| Structure (SMILES) | % inhibition of albumin denaturation [1] | % cell viability ([2]; HepG2, 6.25 µg/ml) | % cell viability ([2]; HepG2, 12.5 µg/ml) | % cell viability ([2]; HepG2, 25 µg/ml) | % cell viability ([2]; HepG2, 50 µg/ml) | % cell viability ([2]; HepG2, 100 µg/ml) | IC50 against HepG2 [2] | % cell viability ([3]; A549, 6.25 µg/ml) | % cell viability ([3]; A549, 12.5 µg/ml) | % cell viability ([3]; A549, 25 µg/ml) | % cell viability ([3]; A549, 50 µg/ml) | % cell viability ([3]; A549, 100 µg/ml) | IC50 against A549 ([3]; A549) | % COX-1 Inhibition (human COX-1; 0.781 μg/ml) | % COX-1 Inhibition (human COX-1; 1.562 μg/ml) | % COX-1 Inhibition (human COX-1; 3.125 μg/ml) | % COX-1 Inhibition (human COX-1; 6.25 μg/ml) | % COX-1 Inhibition (human COX-1; 12.5 μg/ml) | % COX-1 Inhibition (human COX-1; 25 μg/ml) | % COX-1 Inhibition (human COX-1; 50 μg/ml) | further results |
| --- | --- | --- | --- | --- | --- | --- | --- | --- | --- | --- | --- | --- | --- | --- | --- | --- | --- | --- | --- | --- | --- |
| NS(=O)(=O)c1ccc(-n2nc(C(=O)NN=Cc3cccc(Oc4ccccc4)c3)cc2-c2ccc(Cl)cc2)cc1 [Compound T3, 4-(5-(4-chlorophenyl)-3-(2-(3-phenoxybenzylidene) hydrazine-1-carbonyl)-1H-pyrazol-1-yl) benzenesulfonamide] | 63.32% | 84.39% | 84.40% | 73.65% | 73.62% | 54.76% | > 100 µM | 95.77% | 86.16% | 60.37% | 46.16% | 24.18% | 40.14 µM | 16.22 ± 0.61% | 24.62 ± 2.13% | 49.90 ± 2.32% | 61.14 ± 3.03% | 73.08 ± 1.76% | 77.09 ± 0.66% | 85.41 ± 0.12% | anti-cancer activity against A549 cell lines (in words) ([3]; A549): active; concentration at which compound was effective (from % inhibitory values) ([3]; A549 cell lines): 50 µg/mL; % COX-1 Inhibition (human COX-1; 100 μg/ml): 87.94 ± 0.94%; % COX-1 Inhibition (human COX-1; 250 μg/ml): 89.26 ± 0.71%; COX-1 IC50 (human COX-1): 4.655 µM |
| Cc1cc(C=NNC(=O)c2cc(-c3ccc(Br)cc3)n(-c3ccc(S(N)(=O)=O)cc3)n2)cc(C)c1OCc1ccccc1 [Compound T5, 4-(3-(2-(4-(benzyloxy)-3,5-dimethylbenzylidene) hydrazine-1-carbonyl)-5-(4-bromophenyl)-1H-pyrazol-1-yl) benzenesulfonamide] | 70.87% | 84.40% | 73.66% | 73.42% | 54.76% | 39.32% | 66.93 µM | 97.15% | 92.32% | 72.36% | 62.43% | 30.52% | 60.95 µM | 14.39 ± 2.17% | 21.90 ± 2.60% | 45.47 ± 1.94% | 57.14 ± 2.17% | 72.58 ± 3.09% | 76.66 ± 1.30% | 84.01 ± 1.77% | concentration at which compound was effective (from % inhibitory values) ([2]; HepG2 cell lines): 50 µg/mL; % COX-1 Inhibition (human COX-1; 100 μg/ml): 88.49 ± 0.36%; % COX-1 Inhibition (human COX-1; 250 μg/ml): 91.75 ± 2.76%; COX-1 IC50 (human COX-1): 5.596 µM |

From publication PMC11048033, “Dual Anti-Inflammatory and Anticancer Activity of Novel 1,5-Diaryl Pyrazole Derivatives: Molecular Modeling, Synthesis, In Vitro Activity, and Dynamics Study” (Biomedicines, 2024)
